From patent publication US9198891B2, “Method of treating cancer by inhibition of protein kinase-like endoplasmic reticulum protein kinase” (New York University, priority 2010, dated 2015)

Test system: Mouse PERK
Assay: In vitro kinase inhibition assay: PERK-mediated eIF2α phosphorylation
Assay type: biochemical
Conditions: for Activity (ability to inhibit PERK-mediated eIF2α phosphorylation in vitro): compounds selected in the initial VLS; for relative inhibition of PERK among the six active compounds: initial VLS screening; for inhibition of PERK-dependent eIF2α phosphorylation in vitro: tested at 10 μM (FIG. 1C)
Protocol: Mouse PERK proteins comprising the cytoplasmic portion of the molecule with the delta loop deleted were pre-incubated with varying concentrations of compound at room temperature for 10 minutes. This construct thus contains close to a minimal catalytic domain of PERK, closely similar but not identical to SEQ ID NO: 1. The kinase reaction was initiated by the addition of 2 μM ATP, 0.2 μM γ-[^32P]ATP, 10 μM eIF2α and allowed to proceed at room temperature for 15 minutes (Marciniak et al., “Activation-Dependent Substrate Recruitment by the Eukaryotic Translation Initiation Factor 2 Kinase PERK,” J Cell Biol 172: 201-9 (2006), which is hereby incorporated by reference in its entirety). The phosphorylated eIF2α was then separated on 14% SDS-PAGE and visualized by autoradiography. To determine the selectivity of the compounds, their ability to inhibit protein kinase PKA was also evaluated. Briefly, PKA was pre-incubated with the compound at 40 μM, the highest concentration used in the PERK assay, for 10 minutes. Then, 10 μM ATP, 0.2 μM γ-[^32P]ATP and 10 μM GSTag were added, followed by the incubation at room temperature for 15 minutes.

SMILES | Activity (ability to inhibit PERK-mediated eIF2α phosphorylation in vitro) | concentration range over which PERK inhibition is displayed | relative inhibition of PERK among the six active compounds | inhibition of PERK-dependent eIF2α phosphorylation in vitro
O=C(CNC(=O)c1ccco1)N/N=C/c1ccc(O)cc1 [Compound A2] | inactive | – | – | –
COc1cc(/C=N\N(C)c2nc(-c3ccccc3)cc(-c3ccc(Br)cc3)n2)ccc1O [Compound A4] | active | narrow range of concentration | relatively stronger inhibition of PERK | active
ON=C1CC2C3CC(C12)C1/C(=N\O)CC31 (stereo not drawn) [Compound A1] | inactive | – | – | –
Cc1ccccc1N1C(=O)CC(SC(=N)N/N=C/c2ccc(O)c(O)c2)C1=O (stereo not drawn) [Compound A3] | inactive | – | – | –

The next lines start with the values.

Activity (ability to inhibit PERK-mediated eIF2α phosphorylation in vitro) | concentration range over which PERK inhibition is displayed | relative inhibition of PERK among the six active compounds | inhibition of PERK-dependent eIF2α phosphorylation in vitro | SMILES
active | – | – | – | O=C(Nc1cccc(Oc2ccc3c(c2)C(=O)N(c2ccc(O)cc2)C3=O)c1)c1ccco1 [Compound B6]
active | – | – | – | Cc1ccc(OCCOCCOc2ccccc2/C=C2\SC(=N)NC2=O)cc1 [Compound C1]
inactive | – | – | – | O=C(Nc1ccc(O)cc1C(=O)O)c1ccc(C(=O)Nc2ccc(O)cc2C(=O)O)cc1 [Compound C3]
inactive | – | – | – | CCC(Sc1nnc(COc2ccccc2C)n1C)C(=O)Nc1ccc(C(C)=O)cc1 (stereo not drawn) [Compound D4]
inactive | – | – | – | NS(=O)(=O)c1ccc(CNC(=O)/C=C/c2ccc3c(c2)OCO3)cc1 [Compound C6]
active | 1 to 25 µM | relatively stronger inhibition of PERK | active | O=C(COc1ccccc1)NC(=S)Nc1ccc(O)c(-c2nc3ccccc3s2)c1 [Compound D1]
active | – | – | – | CCC(Oc1ccccc1)C(=O)Nc1sc2c(c1C(N)=O)CCC(C(C)(C)C)C2 (stereo not drawn) [Compound B2]
active | – | – | – | CCOC(=O)c1c(NC(=O)CSc2nc(N)cc(=O)[nH]2)sc2c1CCC2 [Compound E1]
